Experimental data: patent publication US8993721B2, “Peptides for targeting apoptotic cells and uses thereof” (Kyungpook National University Industry-Academic Cooperation …, priority 2008, dated 2015)
“Also recorded” adds a separate entry of the source. Where no end group is shown, it is not given here.

Tests used:
[1] = system: apoptotic cells in A549 tumor tissue xenotransplanted under the skin of nude mouse; assay: Histological analysis of tumor targeting (Example 2); format: in vivo; settings: fluorescein-labeled peptide, tail vein; for binding to cells stained by TUNEL (apoptotic cells) in tumor tissue: merge of peptide fluorescence and TUNEL
Description: All animal experiments were performed in accordance with the guideline of the Institutional Animal Care and Use Committee. For tumor xenotransplantation, human lung cancer cells (A549, 1×10^7 cells) suspended in RMPI-1640 medium was subcutaneously injected at the right upper or lower limb of a 6-week-old male BALB/c nude mouse (Hyochang Science). Then, 3 weeks were given for the tumor to grow to a size of 0.5 to 1 cm. The A549 cell line used in the experiment was cultured in RMPI-1640 medium containing 10% fetal bovine serum (FBS) in which antibiotics (penicillin and streptomycin) were included. Subculturing was performed every 3 or 4 days.
The peptides used in the present invention were fluorescein-attached form at the N-terminal. They were synthesized according to the standard Fmoc technique and then isolated through HPLC. The peptide synthesis was performed by an expertise company (Peptron).
The peptide of the present invention (ApoPep-1) or a control peptide (amino acid sequence: NSSSVDK), labeled with fluorescein, was injected into the tail vein of a mouse under isoflurane anesthesia, to a final concentration of 50 μM, and 2 hours was given for circulation.
For histological analysis, the mouse was anesthetized and the abdomen was cut open. After sequentially perfusing phosphate-buffered saline (PBS) and 4% paraformaldehyde through the heart, tumor tissues and organs were removed. Each tissue was cryosected and the peptide of the present invention was observed under a fluorescence microscope (Zeiss). Apoptosis in the tumor tissue was confirmed by TUNEL ([…] terminal deoxynucleotidyl transferase-mediated dUTP nick-end labeling) assay according to the instructions of the manufacturer (Chemicon). Fibrinogen staining was performed by immunohistochemistry using anti-fibrinogen antibody (Abcam) and secondary antibody labeled with Alexa 568, a red fluorescent reagent.

[2] = system: aorta of arteriosclerotic Ldlr(−/−) mouse; assay: Molecular imaging of arteriosclerosis (Example 5); format: in vivo
Description: An arteriosclerotic animal model was established by feeding mice, in which low-density lipoprotein (LDL) receptor was deficient (Ldlr(−/−)) genetically, with a high-cholesterol diet for 8 weeks. At the tail vein of the arteriosclerotic mouse and normal mouse, the peptide having an amino sequence represented by SEQ ID NO: 1 (ApoPep-1) or a control peptide, labeled with Cy7.5 NIR fluorescence, was injected at a final concentration of 50 μM, under isoflurane anesthesia. Two hours later, with the mouse anesthetized, in vivo images of the NIR fluorescence were obtained using an Optix exPlore instrument. Following the in vivo imaging, NIR fluorescence was measured […] after isolating the aorta.

[3] = system: etoposide-treated apoptotic A549 cells; assay: FACS analysis of binding to apoptotic cells (Example 3-3); format: cell-based, human
Description: As another way of confirming the binding of the peptide of the present invention to apoptotic cells, apoptotic cells were treated with the peptide of the present invention, labeled with fluorescein, and the binding was confirmed through FACS analysis. […] The apoptotic cells or normal cells were reacted with ApoPep-1 (5 μM), ApoPep-2 (10 μM) or a control peptide at the same concentrations, labeled with fluorescein, at 4° C. for 1 hour. Further, the cells were reacted with fluorescein-labeled annexin V at room temperature for 15 minutes. After staining the cells with propodium iodide (PI) simultaneously, followed by washing with PBS, FACS analysis was performed using a FACS instrument (Becton Dickinson).

[4] = system: A549 tumor xenotransplanted in nude mice; assay: In vivo fluorescence imaging of targeting of apoptotic cells in tumor (Example 4-1); set-up: species or system mouse
Description: Nude mice in which tumor was xenotransplanted using A549 cells were prepared as in Example <2-1>. The mice were grouped into a doxorubicin (Sigma) treated group (+Dox) and untreated group (−Dox). The treated group was treated with doxorubicin (10 mg/kg) 3 times, with an interval of 48 hours, a week prior to injection of the peptide. At the tail vein of each mouse, the peptide of the present invention or a control peptide, labeled with fluorescein, was injected at a final concentration of 50 μM, under isoflurane anesthesia. Following the injection, in vivo fluorescence images were obtained every hour, from 1 hour to 6 hours after the injection, using an Optix exPlore instrument (GE Healthcare). The images were standardized using the software provided with the instrument.
Further, when the tumor grew considerably (1 cm or larger in diameter), the peptide of the present invention was injected at the same concentration as above, without doxorubicin treatment, and in vivo fluorescence images were obtained at every given time using an IVIS fluorescence imaging system (Chemipro).

[5] = system: trail-treated apoptotic MDA-MB231 cells; assay: Microscopic observation of binding of the peptide to apoptotic cells, MDA-MB231 (Example 9-1); format: cell-based
Description: Cells were cultured in chamber slide (Nunc) and treated with 50 μM etoposide (Sigma) for 16 hours (A549 cells) or 50 ng/ml trail (R&D Systems) for 16 hours (MDA-MB231 cells) to induce apoptosis. The cells were cultured in RMPI-1640 medium (A549 cells) or DMEM-High (MDA-MB231 cells) containing antibiotics (penicillin and streptomycin) and 10% FBS. All the cells were sub-cultured every 3 or 4 days. The apoptosis-induced apoptotic cells were washed with PBS and blocked with 1% BSA at 37° C. for 30 minutes. Then, the cells were reacted with 10 μM of the peptide labeled with fluorescein, at 4° C. for 1 hour. After washing, the cells were reacted with an annexin V reaction buffer containing Alexa594-labeled annexin V (Invitrogen) at room temperature for 15 minutes. The cells were washed with PBS and then fixed with 4% paraformaldehyde for 5 minutes. After treatment with a mounting solution containing the DAPI nuclear stain, images of the cells were obtained under a fluorescence microscope.

[6] = etoposide 15 hours, peptide 5 μM, 4° C. 1 hour

Substance | peptide fluorescence observed in the tumor tissue ([1]; 50 μM final, 2 hours circulation, cryosections) | binding to cells not stained by TUNEL (coagulation necrotic site, fibrinogen staining) ([1]; 50 μM, 2 hours) | binding to cells stained by TUNEL (apoptotic cells) in tumor tissue ([1]; 50 μM, 2 hours) | NIR fluorescence imaged from the back, normal mouse ([2]; Cy7.5-labeled peptide 50 μM) | NIR fluorescence imaged from the back, arteriosclerotic mouse, compared with control peptide ([2]; Cy7.5-labeled peptide 50 μM, tail vein, two hours later) | NIR fluorescence after exposing the aorta by cutting the abdomen open, compared with control peptide ([2]; arteriosclerotic mouse) | intensity of the fluorescence relative to the control peptide ([2]; arteriosclerotic mouse, back image (FIG. 8B)) | binding to normal cells (FACS) ([3]; A549 cells without etoposide, 4° C. 1 hour) | cells at the early stage of apoptosis bound to the peptide [3, 6] [%] | cells at the later stage of apoptosis bound to the peptide [3, 6] [%] | time until which the tumor fluorescence signal was detected ([4]; doxorubicin treated group, fluorescein-labeled peptide 50 μM) [h] | time at which the fluorescence signal from the tumor tissue was most strongly detected ([4]; doxorubicin treated group, fluorescein-labeled peptide 50 μM, tail vein) [h] | fluorescence signal from the tumor, doxorubicin untreated group ([4]; −Dox, fluorescein-labeled peptide 50 μM) | binding to apoptotic cells versus normal cells (FACS) ([3]; etoposide 20 hours, peptide 10 μM at 4° C. or 37° C. for 1 hour) | labeling of trail-treated apoptotic MDA-MB231 cells ([5]; 50 ng/ml trail 16 hours, 10 μM fluorescein-labeled peptide 4° C. 1 hour, Alexa594-annexin V) | labeling of MDA-MB231 cells not treated with trail ([5]; 10 μM peptide 4° C. 1 hour, Alexa594-annexin V) | location of peptide binding relative to annexin V binding (merge), MDA-MB231 ([5]; trail-treated apoptotic cells) | time from which fluorescence from the tumor was detected ([4]; large tumor (1 cm or larger in diameter), no doxorubicin, IVIS) [h] | fluorescence signal from the tumor at 5 hours ([4]; large tumor (1 cm or larger), no doxorubicin)
CQRPPR (also: fluorescein or Cy7.5 label) [ApoPep-1, peptide CQRPPR screened for macrophages; used fluorescein- or Cy7.5-labeled] | observed in the tumor tissue | also binds to the cells not stained by TUNEL | binds to the cells stained by TUNEL | almost nonexistent | stronger NIR fluorescence | much stronger | about two times that of the control peptide | almost nonexistent | 90.3 | 7.2 | 5 | 2 | weakly detected or almost nonexistent |  |  |  |  |  | 
CSVAPR (also: fluorescein or Cy7.5 label) [ApoPep-2, peptide CSVAPR screened for endothelial cells; used fluorescein- or Cy7.5-labeled] |  |  | binds to the apoptotic cells in the tumor tissue |  |  |  |  |  |  |  |  |  |  | bound better to the apoptotic cells than to the normal cells | strongly bound to the apoptotic cells; also recorded: labeling was observed | hardly bound to the untreated cells; also recorded: no labeling was observed | at the same locations | 2 | strong fluorescence signal
